In assay [1] the test system is Panc-1 pancreatic cancer cell line. The assay is described as follows: Antiproliferative assay, Panc-1. Format: cell-based. The note with it: Homo sapiens; Panc-1 pancreatic cancer cells; read-out: Antiproliferative activity IC50 ± SEM, Panc-1.
For assay [2], the system named is A-549 lung cancer cell line. The assay is described as follows: Antiproliferative assay, A-549. Type of assay: cell-based. As to conditions: Homo sapiens, A549; A-549 lung cancer cells; read-out: Antiproliferative activity IC50 ± SEM, A-549.
The subject of assay [3] is HT-29 colon cancer cell line. The assay is described as follows: Antiproliferative assay, HT-29. Format: cell-based. As to conditions: Homo sapiens; HT-29 colon cancer cells; read-out: Antiproliferative activity IC50 ± SEM, HT-29.
Assay [4] has as its system MCF-7 breast cancer cell line. Briefly: Antiproliferative assay, MCF-7. Format: cell-based. As to conditions: Homo sapiens, MCF7; MCF-7 breast cancer cells; read-out: Antiproliferative activity IC50 ± SEM, MCF-7.
Assay [5] concerns BRAF^V600E. Set-up: method as in ref 39 = [39]; Mohassab A. M. Hassan H. A. Abou-Zied H. A. Fujita M. Otsuka M. Gomaa H. A. Youssif B. G. Abdel-Aziz M. J. Mol. Struct. 2024 1297 136953. The note with it: cited from earlier work.
Assay [6] deals with BRAF^V600E. Further details: method as in PMID 33279248. The note with it: cited from earlier work.

Where two headings read alike, the source gives them in different places.

For the compound `C#Cc1cccc(Nc2ncnc3cc(OCCOC)c(OCCOC)cc23)c1` [Erlotinib, reference compound], the IC50 (as a rule, the point on the concentration scale where inhibition reaches its midpoint) in assay [1] is 30 ± 3 nM; in assay [2], 30 ± 3 nM; in assay [3], 30 ± 3 nM; in assay [4], 40 ± 3 nM; in the assay on BRAF^V600E [5], […]; in the assay on BRAF^V600E [6] it was […].

The values above are taken from publication PMC11492426, “Design, synthesis, and biological evaluation of novel quinoline-based EGFR/HER-2 dual-target inhibitors as potential anti-tumor agents” (RSC Advances, 2024).
